Test results: paper PMC7391456, “Targeting fibroblast activation protein (FAP): next generation PET radiotracers using squaramide coupled bifunctional DOTA and DATA^5m chelators” (EJNMMI Radiopharmacy and Chemistry, 2020)

Assays:
Human recombinant PREP = biological target: T1, Human recombinant PREP (Homo sapiens, UniProt P48147); experiment: PREP inhibition assay (IC50, N-succinyl-Gly-Pro-AMC substrate); type: biochemical; details: N-succinyl-Gly-Pro-AMC 250 μM, pH 7.4, 15 min pre-incubation at 37 °C
T1 sequence (P48147 1-710): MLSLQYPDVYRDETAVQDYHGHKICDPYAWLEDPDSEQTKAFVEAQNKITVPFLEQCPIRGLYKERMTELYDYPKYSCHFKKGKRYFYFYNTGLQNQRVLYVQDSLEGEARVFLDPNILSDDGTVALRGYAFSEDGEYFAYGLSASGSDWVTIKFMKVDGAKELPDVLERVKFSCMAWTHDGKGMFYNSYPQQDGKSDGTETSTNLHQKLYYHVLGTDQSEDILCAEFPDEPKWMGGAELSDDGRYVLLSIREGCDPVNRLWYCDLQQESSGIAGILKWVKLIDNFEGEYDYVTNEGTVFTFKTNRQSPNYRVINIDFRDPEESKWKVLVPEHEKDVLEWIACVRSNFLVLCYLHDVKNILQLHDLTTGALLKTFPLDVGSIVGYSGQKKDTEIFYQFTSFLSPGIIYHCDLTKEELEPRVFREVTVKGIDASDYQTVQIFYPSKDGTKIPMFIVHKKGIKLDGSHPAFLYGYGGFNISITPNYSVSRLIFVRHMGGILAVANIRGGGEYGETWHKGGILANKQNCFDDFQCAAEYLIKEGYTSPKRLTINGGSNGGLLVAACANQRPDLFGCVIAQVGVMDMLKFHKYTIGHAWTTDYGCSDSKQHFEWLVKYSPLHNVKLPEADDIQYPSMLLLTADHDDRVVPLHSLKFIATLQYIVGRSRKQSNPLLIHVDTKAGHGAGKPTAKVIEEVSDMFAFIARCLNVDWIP
Description: (§1) Enzymes: A gateway-entry clone for human FAP was purchased from Dharmacon (Accession number DQ891423) and the human secretion signal was replaced with the HoneyBee mellitin secretion signal. For transfection and expression of FAP in Sf9 insect cells, the C-terminal BaculoDirect kit from LifeTechnologies was used. The enzyme was purified from the supernatant of the insect cells using immobilized Ni-chelating chromatography (GE healthcare, Diegem, Belgium), followed by anion-exchange chromatography using a 1 mL HiTrap Q (GE healthcare, Diegem, Belgium). Human recombinant PREP was expressed in BL21(DE3) cells and purified using immobilized Co-chelating chromatography (GE healthcare) followed by anion-exchange chromatography on a 1 ml Mono Q column (GE healthcare).
(§2) Eight concentrations of inhibitors were tested. The final DMSO concentration is kept constant during the experiment to exclude any effects. Inhibitors were pre-incubated with the enzyme for 15 min at 37 °C, afterwards the substrate was added and the velocities of AMC release were measured kinetically at λex = 380 nm, λem = 465 nm for at least 10 min at 37 °C. The Infinite 200 (Tecan Group Ltd.) micro-titer plate reader and the Magellan software were used for measurement and data processing, respectively.
(§3) The data were fitted using a non-linear fit model in GraFit 7 software, according to the following equation: y=range/1+x/IC50^s where y is the value of the residual enzymatic activity compared to a non-inhibited sample, x is the final inhibitor concentration in the assay, s is the slope factor and the IC50 is the half maximal inhibitory concentration.

[1] = Stability studies of gallium-68 complexes in media (EtOH, human serum, saline, PBS); type: physicochemical
Experimental: Gallium-68 stability studies against transmetallation (Fe, Cu, Ca, Mg), transchelation (EDTA, DTPA) as well as in HS, EtOH and saline (0.9% isotone NaCl-solution) were performed. 50 μl of the [^68Ga]Ga-DOTA.SA.FAPi labeling solution with > 95% radiochemical purity were added to 1 mL of the respective media. The measured time points for gallium-68 were 15, 30, 45, 60, 90, 120 min. HS (human male AB plasma, USA origin) was bought from Sigma Aldrich, PBS was purchased from Sigma Aldrich and 0.9% saline from B. Braun Melsungen AG (Melsungen, Germany).

human FAP = biological target: T2, human FAP (Homo sapiens, UniProt Q12884); experiment: FAP inhibition assay (IC50, Z-Gly-Pro-AMC substrate); type: biochemical
T2 construct: the human secretion signal was replaced with the HoneyBee mellitin secretion signal; HoneyBee mellitin secretion signal (replaces the native signal-anchor) (N); C-terminal tag of the BaculoDirect C-term kit (C); made in house; host or cells: Sf9 insect cells (baculovirus); purified from the supernatant
T2 sequence (Q12884 26-760 limits assumed): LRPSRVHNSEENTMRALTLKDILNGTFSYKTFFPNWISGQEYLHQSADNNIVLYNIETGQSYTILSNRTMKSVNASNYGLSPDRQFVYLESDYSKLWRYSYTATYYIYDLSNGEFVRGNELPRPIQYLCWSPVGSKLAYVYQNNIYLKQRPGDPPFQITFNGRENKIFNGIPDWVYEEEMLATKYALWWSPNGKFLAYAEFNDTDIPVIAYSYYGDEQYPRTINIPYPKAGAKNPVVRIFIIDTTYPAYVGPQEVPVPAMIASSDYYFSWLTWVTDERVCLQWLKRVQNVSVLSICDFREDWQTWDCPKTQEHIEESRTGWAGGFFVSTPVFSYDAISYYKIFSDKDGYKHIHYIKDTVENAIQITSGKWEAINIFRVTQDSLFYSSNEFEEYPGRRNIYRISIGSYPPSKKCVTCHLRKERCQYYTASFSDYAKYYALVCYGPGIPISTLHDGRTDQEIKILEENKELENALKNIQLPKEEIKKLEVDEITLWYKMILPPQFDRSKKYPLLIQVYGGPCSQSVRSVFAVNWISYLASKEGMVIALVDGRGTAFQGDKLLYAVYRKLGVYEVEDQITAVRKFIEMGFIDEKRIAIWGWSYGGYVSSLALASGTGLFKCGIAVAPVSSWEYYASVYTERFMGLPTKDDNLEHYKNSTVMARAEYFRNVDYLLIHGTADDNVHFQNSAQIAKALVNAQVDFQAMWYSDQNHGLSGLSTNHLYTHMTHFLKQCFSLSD
Description: as §1
as §2, with “was” for “is”, “any solvent” for “any”, “processing” for “processing,”
as §3

Row | IC50 (Human recombinant PREP) | Stability in different media, intact conjugate ([1]; different media (summary statement)) | IC50 (human FAP; Z-Gly-Pro-AMC 50 μM, pH 8, 15 min pre-incubation at 37 °C) | Selectivity index (IC50 PREP / IC50 FAP) (human FAP; ratio of the IC50 values for FAP and PREP) | Stability, intact conjugate ([1]; human serum (HS), over 2 h) | Stability, intact conjugate ([1]; phosphate buffered saline (PBS), over 120 min) | Stability, intact conjugate ([1]; saline 0.9% (NaCl), over 2 h) | Compound
1 | 1700 ± 100 nM | more than 95% | 0.8 ± 0.2 nM | 2113 | – | – | – | CN(CC(=O)O)C1(CCCCC(=O)NCCNc2c(NCCCCOc3ccc4nccc(C(=O)NCC(=O)N5CC(F)(F)C[C@H]5C#N)c4c3)c(=O)c2=O)CN(CC(=O)O)CCN(CC(=O)O)C1 [DATA^5m.SA.FAPi, (S)-2,2′-(6-((carboxymethyl)(methyl)amino)-6-(5-((2-((2-((4-((4-((2-(2-cyano-4,4-difluoropyrrolidin-1-yl)-2-oxoethyl)carbamoyl)quinolin-6-yl)oxy)butyl)amino)-3,4-dioxocyclobut-1-en-1-yl)amino)ethyl)amino)-5-oxopentyl)-1,4-diazepane-1,4-diyl) diacetic acid]
2 | – | – | – | – | > 95% | > 95% | > 95% | CN(CC(=O)[O-])C1(CCCCC(=O)NCCNc2c(NCCCCOc3ccc4nccc(C(=O)NCC(=O)N5CC(F)(F)C[C@H]5C#N)c4c3)c(=O)c2=O)CN(CC(=O)[O-])CCN(CC(=O)[O-])C1.[68Ga+3] [[^68Ga]Ga-DATA^5m.SA.FAPi]
